Tests used:
Type in all cases: in vivo, human
[1] = tested on: Subjects Having Insomnia Disorder; experiment: Example 2: wake after sleep onset (WASO), polysomnography; settings: Zolpidem ER 6.25 mg
Description: (§1) In some embodiments, a sleep parameter is determined objectively using polysomnography. Polysomnography is the monitoring of multiple electrophysiological parameters during sleep and generally includes measurement of EEG activity, electro-oculographic activity and electromyographic activity, as well as other measurements.
WASO—wake after sleep onset: minutes of wake from the onset of persistent sleep until lights on.
(§2) The treatment period lasted for 31 days. Subjects were randomized in a double-blind manner and received placebo, a tablet containing 5 mg of lemborexant, a tablet containing 10 mg of lemborexant, or a tablet containing 6.25 mg of zolpidem ER.
(§3) Within 5 minutes of the subject's mean habitual bedtime, study drug was administered and an overnight polysomnogram recording was initiated. At completion of the recording the following morning (Day 2), postural stability and cognitive performance were assessed. On the Day 2 evening, subjects returned to the clinic and a blood sample was collected before administering study drug, and then study drug was administered within 5 minutes of the subject's mean habitual bedtime. Again, a polysomnogram recording was initiated. The next morning (Day 3), postural stability and cognitive performance were assessed. A blood sample was also collected.
(§4) On Day 29, subjects returned to the clinic. Study drug was administered within 5 minutes of the subject's mean habitual bedtime and a polysomnogram recording was conducted. On the following morning (Day 30), postural stability and cognitive performance were assessed. After 1.5 hours of waketime, subjects rated their morning sleepiness level.
(§5) On the evening of Day 30, subjects returned to the clinic. A pre-dose blood sample was collected and study drug was again administered within 5 minutes of the subject's mean habitual bedtime. A polysomnogram recording was initiated. The following morning (Day 31), postural stability and cognitive performance were assessed and a blood sample was obtained. The ISI, FSS, EQ-5D-3L and PGI-Insomnia were administered. Blood and urine samples were collected for routine safety assessment. An electrocardiogram was performed, and vital signs and weight were assessed. The eC-SSRS was then administered to the subject. At 1.5 hours after waketime, subjects rated their morning sleepiness level.
Another key secondary endpoint was to determine the change from baseline for mean wake after sleep onset on Days 29 and 30 after administration of 5 mg or 10 mg of lemborexant, compared to placebo.

[2] = tested on: Subjects Having Insomnia Disorder; experiment: Example 2: return to sleep latency; settings: Zolpidem 6.25 mg
[3] = tested on: Subjects Having Insomnia Disorder; experiment: Example 2: treatment-emergent adverse events; settings: Zolpidem ER 6.25 mg (N = 263)
Description: Between 14 and 18 days after completion of the treatment period, subjects returned to the clinic for the end of study visit. The T-BWSQ and eC-SSRS were administered and routine safety assessments were conducted.
A subject who prematurely discontinued taking study drug was to return to the clinic as soon as practicable after discontinuing study drug. If the subject discontinued due to an adverse event, the adverse event must have been followed to resolution or for 2 weeks, whichever came first. Additionally, subjects who discontinued early underwent a urine drug test.

[4] = tested on: Subjects Having Insomnia Disorder; experiment: Example 2: total sleep time (TST), polysomnography; settings: Zolpidem ER 6.25 mg
Description: as §1
TST—total sleep time: minutes of sleep from sleep onset until terminal awakening.
as §2, §3, §4, §5

[5] = tested on: Subjects Having Insomnia Disorder; experiment: Example 2: wake after sleep onset in the second half of the night (WASO2H), polysomnography; settings: Zolpidem ER 6.25 mg
Description: as §1
WASO2H: wake after sleep onset in the second half of the night: minutes of wake during the interval from 240 minutes after lights off until lights on.
as §2, §3, §4, §5
Another key secondary endpoint was to determine the change from baseline for mean wake after sleep onset in the second half of the night on Days 29 and 30 after administration of 5 mg or 10 mg of lemborexant compared to administration of 6.25 mg of zolpidem ER.

[6] = tested on: Subjects Having Insomnia Disorder; experiment: Example 2: Cognitive Performance Assessment Battery; settings: after the first 2 nights of treatment; 3 of the 4 domains vs placebo and 5 mg, 2 of the 4 domains vs 10 mg lemborexant (FIGS. 11A-11D)
Description: FIG. 11A-FIG. 11D show the change from baseline (least squares mean) in the four domains of the Cognitive Performance Assessment Battery at Days 2/3 and Days 30/31 in patients treated with placebo, 6.25 mg of zolpidem, 5 mg of lemborexant, or 10 mg of lemborexant.
Subjects were provided with a sleep diary and trained on how to record entries. After subjects completed the sleep diary on 7 consecutive mornings, and provided that the subject was still eligible to participate in the study, they attended a second clinical meeting between 10 and 17 days before the randomization phase. […]
Within 5 minutes of the subject's mean habitual bedtime, study drug was administered and an overnight polysomnogram recording was initiated. At completion of the recording the following morning (Day 2), postural stability and cognitive performance were assessed. […] The next morning (Day 3), postural stability and cognitive performance were assessed. […]
On Day 29, subjects returned to the clinic. […] On the following morning (Day 30), postural stability and cognitive performance were assessed. […]
On the evening of Day 30, subjects returned to the clinic. […] The following morning (Day 31), postural stability and cognitive performance were assessed and a blood sample was obtained. […] An electrocardiogram was performed, and vital signs and weight were assessed. […]

For `Cc1ccc(-c2nc3ccc(C)cn3c2CC(=O)N(C)C)cc1` [Zolpidem ER, zolpidem, reference compound], the “Wake After Sleep Onset, Change from Study Baseline, Mean (SD)” value ([1]; Days 1/2) was −44.36 (38.074), the “Wake After Sleep Onset, Change from Study Baseline, Median” value ([1]; Days 1/2) was −44.13 and the “Wake After Sleep Onset, Mean (SD)” value ([1]; Days 1/2) was 69.92 (33.517). For the same compound, the “Wake After Sleep Onset, Median” value ([1]; Days 1/2) was 62.00, the “Wake After Sleep Onset, Change from Study Baseline, Mean (SD)” value ([1]; Days 29/30) was −36.50 (43.406) and the “Wake After Sleep Onset, Change from Study Baseline, Median” value ([1]; Days 29/30) was −34.63. For the same compound, the “Wake After Sleep Onset, Mean (SD)” value ([1]; Days 29/30) was 77.71 (39.932), the “Wake After Sleep Onset, Median” value ([1]; Days 29/30) was 71.00 and the “Return to Sleep Latency, LSM - Difference vs. Placebo” value [2] was -21.0 min. For the same compound, the “Return to Sleep Latency, Mean (SD) change from baseline” value [2] was -21.2 min, the “Return to Sleep Latency, Postdose” value [2] was 19.6 min and the Congenital anomaly/birth defect [3] was 0 n (%). For the same compound, the Deaths [3] was 0 n (%), the Life threatening [3] was 0 n (%) and the “Other SAEs” value [3] was 4 (1.5) n (%). The “Persistent or significant disability or incapacity” value [3] was 0 n (%), the “Requires inpatient hospitalization or prolongation of existing hospitalization” value [3] was 4 (1.5) n (%) and the “Serious TEAEs” value [3] was 4 (1.5) n (%). For the same compound, the “Severe TEAEs” value [3] was 8 (3.0) n (%), the TEAEs [3] was 93 (35.4) n (%) and the “TEAEs leading to study dose reduced” value [3] was 0 n (%). For the same compound, the “TEAEs leading to study drug dose adjustment” value [3] was 8 (3.0) n (%), the “TEAEs leading to study drug interrupted” value [3] was 2 (0.8) n (%) and the “TEAEs leading to study drug withdrawal” value [3] was 7 (2.7) n (%). For the same compound, the “Treatment-related TEAEs” value [3] was 40 (15.2) n (%), the “Total Sleep Time, Change from Study Baseline, Mean (SD)” value ([4]; Days 1/2) was 55.31 (48.138) and the “Total Sleep Time, Change from Study Baseline, Median” value ([4]; Days 1/2) was 52.00. For the same compound, the “Total Sleep Time, Mean (SD)” value ([4]; Days 1/2) was 382.42 (41.528), the “Total Sleep Time, Median” value ([4]; Days 1/2) was 387.25 and the “Total Sleep Time, Change from Study Baseline, Mean (SD)” value ([4]; Days 29/30) was 43.34 (54.012). The “Total Sleep Time, Change from Study Baseline, Median” value ([4]; Days 29/30) was 39.63, the “Total Sleep Time, Mean (SD)” value ([4]; Days 29/30) was 370.25 (48.855) and the “Total Sleep Time, Median” value ([4]; Days 29/30) was 377.75. The “Wake After Sleep Onset in the Second Half of the Night, Change from Study Baseline, Mean (SD)” value ([5]; Days 1/2) was −24.64 (33.347), the “Wake After Sleep Onset in the Second Half of the Night, Change from Study Baseline, Median” value ([5]; Days 1/2) was −24.13 and the “Wake After Sleep Onset in the Second Half of the Night, Mean (SD)” value ([5]; Days 1/2) was 53.30 (27.706). For the same compound, the “Wake After Sleep Onset in the Second Half of the Night, Median” value ([5]; Days 1/2) was 49.25, the “Wake After Sleep Onset in the Second Half of the Night, Change from Study Baseline, Mean (SD)” value ([5]; Days 29/30) was −21.42 (36.257) and the “Wake After Sleep Onset in the Second Half of the Night, Change from Study Baseline, Median” value ([5]; Days 29/30) was −19.13. For the same compound, the “Wake After Sleep Onset in the Second Half of the Night, Mean (SD)” value ([5]; Days 29/30) was 56.74 (31.112), the “Wake After Sleep Onset in the Second Half of the Night, Median” value ([5]; Days 29/30) was 51.25 and the “performance on Cognitive Performance Assessment Battery” value [6] was “significantly worse performance than placebo”.

— US20220305012A1, “L[…] TREATING SLEEP ISSUES” (EISAI R&D MANAGEMENT CO., LTD., priority 2019, published 2022)
